From patent US11639503B2, “Anti-chymase aptamer and use for same” (RIBOMIC INC., priority 2017, dated 2023)
Oligonucleotides are written 5' to 3', each unit as a sugar letter and its base; * is a phosphorothioate linkage, no mark a phosphodiester; rarer units and linkages stand in square brackets, end groups in braces. Plain capitals give the bases only. r = 2'-OH (RNA); f = 2'-fluoro

T1: chymase (recombinant, manufactured by SIGMA) (Homo sapiens, UniProt P23946)
T1 construct: purchased SIGMA
T1 sequence (P23946 22-247): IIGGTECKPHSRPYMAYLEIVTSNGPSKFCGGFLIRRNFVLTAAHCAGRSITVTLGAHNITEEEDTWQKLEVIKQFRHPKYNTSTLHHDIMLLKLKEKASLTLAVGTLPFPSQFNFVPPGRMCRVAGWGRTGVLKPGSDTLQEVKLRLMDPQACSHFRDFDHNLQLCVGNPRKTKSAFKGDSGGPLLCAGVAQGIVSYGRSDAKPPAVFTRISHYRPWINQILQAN

T2: chymase purified from human skin mast cell (native, Calbiochem) (Homo sapiens, UniProt P23946)
T2 construct: Here, the native is chymase purified from human skin mast cell; purchased Calbiochem; host or cells: human skin mast cell (tissue-derived)
T2 sequence (P23946 22-247): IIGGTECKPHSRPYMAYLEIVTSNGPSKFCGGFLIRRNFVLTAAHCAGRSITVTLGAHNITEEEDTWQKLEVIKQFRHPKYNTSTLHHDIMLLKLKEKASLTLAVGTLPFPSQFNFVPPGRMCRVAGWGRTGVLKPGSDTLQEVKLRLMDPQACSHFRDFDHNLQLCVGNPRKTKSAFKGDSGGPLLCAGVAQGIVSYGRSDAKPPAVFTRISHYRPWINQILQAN


Key:
[1] = target: T1, chymase (recombinant, manufactured by SIGMA); experiment: chymase enzyme activity inhibition, synthetic substrate Suc-Ala-Ala-Pro-Phe-MCA; assay type: biochemical; details: Table 5; MCA substrate, amount of chymase 0.005 μg instead of 0.05 μg; one measurement
Method: A first method employs a synthetic substrate. A useful chymase substrate is Suc-Ala-Ala-Pro-Phe-MCA (4-methylcoumaryl-7-amide group) (manufactured by Peptide Institute, Inc.), which contains the 4-amino acid peptide “Ala-Ala-Pro-Phe” (SEQ ID NO: 41), a standard substrate for chymotrypsin-like proteases.
The assay is performed using a 96-well plate (F16 Black Maxisorp Fluoronunc, manufactured by Nunc), with a reaction mixture volume of 100 μL, in a buffer solution (solution C; see Example 2 below). First, each nucleic acid is prepared in solution C to obtain 50 μL solutions. After 10 μL of the 1 mM substrate prepared in solution C is added, the plate is set to the microplate reader SpectraMax190 (manufactured by Molecular Devices Corporation), and incubated at 37° C. for 5 minutes. Separately, 0.05 μg of chymase (recombinant, manufactured by SIGMA) is diluted in solution C, and 40 μL of this dilution is incubated at 37° C. for 5 minutes. The chymase solution is added to the mixture of the nucleic acid and substrate to initiate an enzyme reaction. The plate containing the reaction mixture is set to the microplate reader SpectraMax190 (manufactured by Molecular Devices Corporation), and examined for time-dependent changes in the fluorescence intensity at 37° C. for 5 minutes (excitation wavelength 380 nm, detection wavelength 460 nm). A linear approximation of the increase in the fluorescence of the AMC (7-amino-4-methylcoumarine) released from the substrate by chymase activity is generated, and its slope is taken as the initial reaction velocity. For control, samples are treated and analyzed in the same manner in two cases: use of a nucleic acid pool containing a random sequence of 30 or 40 nucleotides (negative control), and use of chymostatin, a known chymotrypsin-like serine protease inhibitor (positive control). Taking the initial reaction velocity without the nucleic acid and inhibitor as a 100% enzyme activity, the inhibitory rate for each test substance is calculated, and the inhibitor concentration required to cause a 50% inhibition of the enzyme activity (IC50) is determined.
Whether the nucleic acids shown by SEQ ID NO: 1-8 inhibit the enzyme activity of chymase was determined as described below. The chymase substrate used was Suc-Ala-Ala-Pro-Phe-MCA (manufactured by Peptide Institute, Inc.), which contains the 4-amino-acid peptide Ala-Ala-Pro-Phe, a standard substrate for chymotrypsin-like proteases. Here, Suc is a protecting succinyl group, and MCA is a 4-methylcoumaryl-7-amide group; upon cleavage of the C-terminal side of phenylalanine, AMC (7-amino-4-methylcoumarine) is released. By detecting the fluorescence of this AMC, the enzyme activity of chymase can be determined. The assay was performed using a 96-well plate (F16 Black Maxisorp Fluoronunc, manufactured by Nunc), with a reaction mixture volume of 100 μL, in solution C as a buffer solution. Here, the solution C is a mixed solution of 145 mM sodium chloride, 5.4 mM potassium chloride, 1.8 mM calcium chloride, 0.8 mM magnesium chloride, 20 mM Tris (pH 7.6), and 0.05% Tween20. First, nucleic acid was serially diluted in solution C to obtain 50 μL solutions. After 10 μL of the 1 mM substrate prepared in solution C was added thereto, the plate was set to the microplate reader SpectraMax190 (manufactured by Molecular Devices Corporation), and incubated at 37° C. for 5 minutes. […] The chymase solution was added to the mixture of the nucleic acid and substrate to initiate an enzyme reaction. The final chymase concentration in the reaction mixture was 16.7 nM, the final substrate concentration being 100 μM. The plate containing the reaction mixture was set to the microplate reader SpectraMax190 (manufactured by Molecular Devices Corporation), and examined for time-dependent changes in the fluorescence intensity at 37° C. for 5 minutes (or 30 minutes) (excitation wavelength 380 nm, detection wavelength 460 nm). […]

[2] = target: T2, chymase purified from human skin mast cell (native, Calbiochem); experiment: chymase enzyme activity inhibition, native substrate angiotensin I (His-Leu fluorescence); assay type: biochemical; details: mean of 2 or 3 measurements
Method: A second method of evaluation employs a native substrate. A useful native substrate for chymase is angiotensin I. Here, His-Leu, a peptide fragment released upon degradation of angiotensin I, is fluorescently derivatized, and the fluorescence intensity therefrom is quantified.
In the assay, an enzyme reaction is carried out in 50 μL of solution C. First, 0.3-0.75 ng of chymase (recombinant, manufactured by SIGMA; or native, manufactured by Calbiochem) is diluted in solution C to obtain 5 μL chymase solution. Each nucleic acid is prepared in solution C to obtain 25 μL solutions. 5 μL of each chymase dilution and 25 μL of each nucleic acid solution are mixed, and then the mixture is incubated at 37° C. for 5 minutes. Separately, 20 μL of 125 μM angiotensin I (manufactured by Peptide Institute, Inc.) is prepared in solution C and incubated at 37° C. for 5 minutes. The angiotensin I solution is added to the mixture of chymase and nucleic acid, and the enzyme reaction is initiated. After the reaction was allowed to proceed at 37° C. for 90 minutes, 25 μL of ice-cooled 30% trichloroacetic acid solution is added to terminate the reaction. The entire mixture is centrifuged at 4° C., 14000 rpm for 10 minutes, and 30 μL of the resulting supernatant is used for the subsequent reaction for fluorescent derivatization.
After 30 μL of the supernatant is added to a 96-well plate (Black, manufactured by Costar), 15 μL of 2% o-phthalaldehyde (manufactured by SIGMA) solution in methanol and 170 μL of 0.3M NaOH solution are mixed in each well, and the plate is allowed to stand at room temperature for 10 minutes. Subsequently, 25 μL of 3M HCl solution is added to terminate the reaction. The plate is set to the microplate reader SpectraMax190 (manufactured by Molecular Devices Corporation), and the fluorescence intensity is determined at an excitation wavelength of 355 nm and a fluorescence wavelength of 460 nm.
For control, samples are treated and analyzed in the same manner in two cases: use of SEQ ID NO: 58 (negative control) and use of chymostatin, a known chymotrypsin-like serine protease inhibitor (positive control). In both cases, fluorescence intensity obtained at 0 minute reaction time serves as a blank determination. Taking the fluorescence intensity detected with the addition of an equal volume of solution C, in place of each nucleic acid, in the chymase enzyme reaction as 100%, the inhibitory rate for each test substance is calculated, and the inhibitor concentration required to cause a 50% inhibition of the enzyme activity (IC50) is determined.
Whether the nucleic acids shown by SEQ ID NO: 9 and 10 inhibit the enzyme activity of chymase was determined by the following method. Angiotensin I is converted by chymase to angiotensin II, during which a peptide fragment His-Leu is released. Since the peptide His-Leu is fluorescently derivatized by o-phthalaldehyde, its fluorescence intensity can be quantitatively measured.
The total volume of solution for an enzyme reaction in the assay was set to 50 μL, and the reaction was performed in solution C buffer. At first, native (manufactured by Calbiochem) was diluted with solution C to give 5 μL thereof. Here, the native is chymase purified from human skin mast cell. The nucleic acid was serially diluted with solution C at a concentration of 0.0027-2 μM to give 25 μL thereof. The chymase solution (5 μL) and the nucleic acid solution (25 μL) were mixed, and the mixture was incubated at 37° C. for 5 min. On the other hand, […] angiotensin I (manufactured by PEPTIDE INSTITUTE, INC.) was prepared in solution C to give 20 μL thereof, which was incubated at 37° C. for 5 min. The angiotensin I solution was added to a mixture of chymase and nucleic acid to start an enzyme reaction. The final chymase concentration of the reaction solution was 0.5 nM, and the final substrate concentration was 50 μM. […]

[3] = Table 4, angiotensin I as substrate
[4] = Table 3, angiotensin I as substrate, >1 = no inhibitory activity up to 1 μM
[5] = Table 6, angiotensin I as substrate
[6] = Table 2, substrate angiotensin I 50 μM, chymase 0.5 nM, 37° C. 90 min

| Molecule | IC50 [2, 3] [nM] | IC50 [2, 5] [nM] | also measured |
| --- | --- | --- | --- |
| 23 (GGCAGAUGAUCGGACAUAACAGUAGAUAGAGUUAAAACUGGGGUGUCAA; 2'-fluoro at CU, RNA at AG, backbone not given here) [compound 23] | – | – | IC50 [1]: 7.8 nM |
| 22 (GGCAGAUGAUCGGACAUAACAGUUAGAUAGAGUUAAAAACUGGGGUGUCAA; 2'-fluoro at CU, RNA at AG, backbone not given here) [compound 22] | – | – | IC50 [1]: 5 nM |
| 17(24) (GAUGAUCGGACAUAACAUUGUUGGGGUGUCAA; aptamer; 2'-O-methyl, idT end and other modifications, positions not given here) | 0.19 | – | – |
| 12 (GACAUAACAUUGUUGGGGUGUC; 2'-fluoro at CU, RNA at AG, backbone not given here) [compound 12] | – | – | IC50 [2, 4]: > 1000 nM |
| 33(4) (AUGAUCGGACAUAACUAAUUAGGGGUGUCAA; aptamer; modified variant with 2'-O-methyl and end modifications, pattern not given here) | – | 0.072 | – |
| 17(11) (GAUGAUCGGACAUAACAUUGUUGGGGUGUCAA; aptamer; 2'-O-methyl, idT end and other modifications, positions not given here) | 0.14 | – | – |
| 33 (AUGAUCGGACAUAACUAAUUAGGGGUGUCAA; aptamer; listed as RNA, chemistry not fully specified) [compound 33] | – | 0.21 | – |
| 17(17) (GAUGAUCGGACAUAACAUUGUUGGGGUGUCAA; aptamer; 2'-O-methyl, idT end and other modifications, positions not given here) | 0.19 | – | – |
| 33(2) (AUGAUCGGACAUAACUAAUUAGGGGUGUCAA; aptamer; modified variant with 2'-O-methyl and end modifications, pattern not given here) | – | 0.078 | – |
| 17(1) (GAUGAUCGGACAUAACAUUGUUGGGGUGUCAA; 2'-O-methyl, idT end and other modifications, positions not given here) | 44.4 | – | – |
| 17(7) (GAUGAUCGGACAUAACAUUGUUGGGGUGUCAA; aptamer; 2'-O-methyl, idT end and other modifications, positions not given here) | 0.17 | – | – |
| 33(3) (AUGAUCGGACAUAACUAAUUAGGGGUGUCAA; aptamer; modified variant with 2'-O-methyl and end modifications, pattern not given here) | – | 0.071 | – |
| 17(6) (GAUGAUCGGACAUAACAUUGUUGGGGUGUCAA; aptamer; 2'-O-methyl, idT end and other modifications, positions not given here) | 0.14 | – | – |
| 33(1) (AUGAUCGGACAUAACUAAUUAGGGGUGUCAA; aptamer; modified variant with 2'-O-methyl and end modifications, pattern not given here) | – | 0.074 | – |
| 33(9) (AUGAUCGGACAUAACUAAUUAGGGGUGUCAA; listed as RNA, chemistry not fully specified) | – | 1.35 | – |
| 17 (GAUGAUCGGACAUAACAUUGUUGGGGUGUCAA; 2'-fluoro at CU, RNA at AG, backbone not given here) [compound 17] | 1.4 | 1.4 | IC50 [2, 4]: 1.4 nM |
| 33(8) (AUGAUCGGACAUAACUAAUUAGGGGUGUCAA; aptamer; modified variant with 2'-O-methyl and end modifications, pattern not given here) | – | 0.061 | – |
| 10 (nucleic acid) rGrGrGrArAfCrGrArArGfCrGrAfCrArGrAfCfCrGrArAfUfCrArGrArArGfUfUfCrArAfCrAfUrGrGrAfCrAfUrArAfCrAfUfCrGrAfUrGrGrGrGfUrGfUfCrArArGfUrAfCfUrGrAfCrGrAfCrArGrA | – | – | IC50 [2, 6]: 0.43 nM |
| 9 (nucleic acid) rGrGrGrArAfCrGrArArGfCrGrAfCrArGrAfCrGfUfUfCfCrArGfCrGfUfCfUrArAfUrAfCrGfUrGrArAfUrArAfCfCfUrGrAfUfCrGfUrArGrGrGrGrGfUfUfCrArArGfUrAfCfUrGrArGrGrAfCrArGrA | – | – | IC50 [2, 6]: 0.22 nM |
